Consider one compound from US11639506B2, “Recombinant yeast having increased tolerance to ionic liquids and methods of use” (Wisconsin Alumni Research Foundation, priority 2015, dated 2023).

Assay [1] concerns PTK2 deletion mutant in a lab strain background. Put plainly: Growth inhibition IC50, PTK2 deletion mutant in lab strain. The format is cell-based, S. cerevisiae. To be noted: deletion mutant of PTK2 in the lab strain. Here is the method:
Compounds, initial screening, and IC50 determination: Compounds tested were purchased from Sigma-Aldrich. Cells of S. cerevisiae (MATαpdr1Δ::natMXpdr3Δ::KI.URA3 snq2Δ::KI.LEU2 can1Δ::STE2pr-Sp_his5 lyp1Δhis3Δ1 leu2Δ0 ura3Δ0 met15Δ0), referred to as control strain, were grown in 200 μl cultures at 30° C. in YPD, with a drug or DMSO control. Plates were read on a TECAN M1000 over a 48 hour growth period. The specific growth rate was calculated using GCAT analysis software (available at cat3-pub.glbrc.org on the World Wide Web) (Sato et al., 2013). When presented, IC50 values for growth inhibition were calculated from triplicate 8 point dose curves and SigmaPlot 12.0. When presented, error bars are mean±standard error (S.E.) of at least 3 replicates.

The test system of assay [2] is yeast overexpressing PMA1 or PTK2. The assay is described as follows: Tolerance of PMA1 / PTK2 overexpression strains. Type of assay: cell-based.
In a further assay the test system is Y133 ptk2Δ. Type of assay: cell-based, S. cerevisiae. To be noted: in the presence of 1% EMIM-Cl, versus Y133. The text has this: We deleted PTK2 in our xylose fermenting yeast GLBRCY133 (Parreiras et al.,2014).
Assay [3] deals with S. cerevisiae deletion mutants. The assay is described as follows: Chemical genomic profiling of pooled deletion mutants. The settings on record: listed as EMIM-CI. Type of assay: cell-based.

In the case of `CCn1cc[n+](C)c1.[Cl-]` [EMIM-Cl, 1-ethyl-3-methylimidazolium chloride], in assay [1], the resistant to concentration result is on record as “over 5%”. Besides, in assay [2] (PMA1 overexpression, p<0.01), the “EMIM-Cl tolerance on increased expression of PMA1” value is “significant decrease”. In assay [2] (PTK2 overexpression), the “EMIM-Cl tolerance on overexpression of PTK2” value is “reduced EMIM-Cl tolerance, but not significantly”. Also, the “sugar conversion (glucose and xylose) and ethanol production of PTK2 mutant” value in the assay on Y133 ptk2Δ is on record as “significantly improved”. Moreover, the “Fold Change” value in assay [3] (HMI1 deletion mutant) stood at 0.1939; in assay [3] (LYS5 deletion mutant), 0.1821; in assay [3] (MCT1 deletion mutant) it was 0.1576; in assay [3] (SHE9 deletion mutant), 0.2014.
